The nature of series [1]: Oil water partition coefficients (octanol/water, HPLC). As to conditions: for lipid water partitioning, in words: passage through gastrointestinal barrier and blood brain barrier. It is filed as physicochemical. The procedure:
Partition coefficients were determined by dissolving the compound in a 1:1 mixture of octanol/water and shaking the solution for 12 hours. HPLC was used to determine the partition coefficient. The reported values are the log of the octanol/water partition

A short description of series [2]: pKa by potentiometric titration. The following applies: aqueous solution, ionic strength 0.10, 25° C. It is filed as physicochemical. As for the experimental part: PKa's were determined by standard potentiometric titration methods in aqueous solution with an ionic strength of 0.10 at 25° C. Values are reported as log K values of the equilibrium constant.
For another series, the system named is E. coli (ATCC 35150). It is filed as cell-based. The following applies: 60 minutes. As for the experimental part: (§1) Medium contained 10 mM HEPES buffer at pH 7. […] Colonies were counted after 20 hours.
Series [3] concerns S. aureus (ATCC 29213). It is filed as cell-based. As for the experimental part:
as §1

In series [4] the test system is S. aureus (ATCC 29213). Description: Bacterial survival, toxin diazoxide and antidotes. It is filed as cell-based. As to conditions: 60 minutes. As for the experimental part:
as §1

Series [5] concerns MPTP induced dopamine loss. The following applies: previously reported; cited from earlier work.
The subject of series [6] is E. coli (GM 7359) alkA tag E. coli mutant. As to conditions: 60 minutes.
Experimental: (§2) Bacteria were inoculated and cultured in nutrient agar for eighteen hours, using a shaking incubator at 140 r.p.m and 35° C. Medium contained 10 mM HEPES buffer at pH 7. Cells were centrifuged twice in Sorval RC-5 centrifuge 12,000 r.pm.×15 minutes at 4° C. and washed twice in 10 uM HEPES buffer. The resuspended cells were counted using a Hemocrit and diluted to a level of 5×10^1 cells per ml in 10 μM HEPES. The cells, the following toxins; methyl viologen (paraquat), methyl viologen (MPP^+), rotenone, daizoxide, streptozotocin and alloxan, and antidotes were added, reaching final volumes of 1 ml in Eppendorf tubes and placed on a rotator at room temperature. 10 μM diethylenetriaminepentaacetic acid was added to the samples to terminate the reactions at the specified times of either twenty or sixty minutes. 300 μL of cells were plated on Petri plates containing nutrient agar and incubated at 35° C. overnight. Colonies were counted after 20 hours. Percentage survival as compared with culture controls is calculated from the means of triplicates in each experimental group.
The conditions of series [7]: cited from earlier work.
Series [8] concerns E. coli (GM 7359) alkA tag E. coli mutant. As to conditions: 60 minutes. The source holds these as a separate data set.
Experimental: as §2
Series [9] concerns S. aureus (ATCC 29213). Description: Bacterial survival, toxin MPP^+ and antidotes. As to conditions: 60 minutes.
Experimental: as §2
For a further series, the system named is M. Luteus (ATCC 499732). Description: Bacterial survival, toxin diazoxide and antidotes.
Series [10] deals with E. coli (GM 7359) alkA tag E. coli mutant. As to the kind of experiment: Bacterial survival, toxin streptozotocin and antidotes. The following applies: 60 minutes.
Experimental: as §2
Where [11] appears, read: 1:1 octanol/water, shaken 12 hours, HPLC.
Setting [12] is: 0.15 mM Diazoxide + 2.5 uM antidote.
Setting [13] is: 0.15 mM Diazoxide + 5 uM antidote.
Where [14] appears, read: 100 uM Rotenone + 2.5 uM antidote.
The mark [15] stands for this setting: 100 uM Rotenone + 5 uM antidote.
[16] abbreviates: 100 uM Streptozotocin + 5 uM antidote.

Read-outs that look alike come from different tables or passages of the source.

Experimental for M. Luteus (ATCC 499732): as §2

Take `NCCNCCCNCCN` [2,3,2-tetramine, 1,3-bis-[(2′-aminoethyl)-amino]propane]: the “Log Partition Coefficient Octanol:Water” value in series [1] (setting [11]) turned out to be 2.1. Besides, the “lipid water partitioning, in words” value in [1] is “optimal lipid water partitioning”. The “pKa(1)” value in series [2] is 10.3. Moreover, the “pKa(2)” value in series [2] was found to be 9.5. Further, the “pKa(3)” value in [2] turned out to be 7.3. Also, the “pKa(4)” value in [2] is 6.0. For the same molecule, the “Mean % Survival” value amounted to 100% in the series with E. coli (ATCC 35150) (1.0 mM Paraquat + 1.0 mM antidote); 100% with E. coli (ATCC 35150) (substance alone 1 mM); 78% in the series on S. aureus (ATCC 29213) [3]; 80% with S. aureus (ATCC 29213) [3] (0.5 mM Paraquat + 1 mM antidote, 60 minutes); 100% in the series on S. aureus (ATCC 29213) [3] (substance alone 1 mM, 60 minutes); 65% in the series on S. aureus (ATCC 29213) [4] (setting [12]). Besides, the “Mean % Survival” value was determined as 78% in the series with S. aureus (ATCC 29213) [4] (setting [13]), 78% with S. aureus (ATCC 29213) [4] (0.15 mM Diazoxide + 10 uM antidote), 75% with S. aureus (ATCC 29213) [4] (0.15 mM Diazoxide + 20 uM antidote) and 99% in the series with S. aureus (ATCC 29213) [4] (substance alone 20 uM). Moreover, the “prevention of MPTP induced dopamine loss, in words” value in [5] is on record as “prevent MPTP induced dopamine loss”.

Take `NCCNCCNCCN` [2,2,2-tetramine, reference compound]: in series [1] (setting [11]), the “Log Partition Coefficient Octanol:Water” value came to 1.6. The “lipid water partitioning, in words” value in [1] was “optimal lipid water partitioning”. Besides, in [2], the “pKa(1)” value is on record as 9.7, the “pKa(2)” value was found to be 9.1, the “pKa(3)” value worked out at 6.6 and the “pKa(4)” value is on record as 3.3. Further, the “Mean % Survival” value in series [6] (100 mM Rotenone + 0.5 mM antidote) is given as 67%. Besides, in series [6] (100 mM Rotenone + 2 mM antidote), the “Mean % Survival” value is listed as 100%. In addition, the “Mean % Survival” value in series [6] (substance alone 2 mM) was 100%. The “half life in vivo” value in series [7] is “only a few hours”. Besides, the “metabolism and excretion, in words” value in [7] (in vivo) is “rapidly metabolized to acetyl 2,2,2-tetramine and rapidly excreted”.

Take `CNCCNCCCNCCNC` [2,3,2-methylated on N1/N4, N,N′″-dimethyl 2,3,2-tetramine]: the “Log Partition Coefficient Octanol:Water” value in series [1] (setting [11]) is 0.4.

Consider “1,4,8,11-tetraaza-1,4,8,11-tetrabicyclo[3.3.1]non-3-ylcyclotetradecane [Cyclam Adamantane]”, for which the “Mean % Survival” value in series [6] (setting [14]) is reported as 97%; in series [6] (setting [15]) it was 89%; in series [6] (100 uM Rotenone + 12.5 uM antidote), 100%; in [6] (substance alone 25 uM), 100%; in [8] (2 mM Alloxan + 2.5 uM antidote), 100%; in [8] (2 mM Alloxan + 10 uM antidote), 100%. Further, the “Mean % Survival” value (in [8] (substance alone 10 uM); with S. aureus (ATCC 29213) [9] (0.2 mM MPP^+ + 1 uM antidote); in the series on S. aureus (ATCC 29213) [9] (0.2 mM MPP^+ + 2.5 uM antidote); in the series on S. aureus (ATCC 29213) [9] (0.2 mM MPP^+ + 5.0 uM antidote); in the series on S. aureus (ATCC 29213) [9] (0.2 mM MPP^+ + 7.5 uM antidote); in the series with S. aureus (ATCC 29213) [9] (substance alone 30 uM)) was 100% throughout. For the same molecule, the “Mean % Survival” value with M. Luteus (ATCC 499732) (0.2 mM Diazoxide + 12.5 uM antidote, T20) was found to be 100%; with M. Luteus (ATCC 499732) (0.2 mM Diazoxide + 12.5 uM antidote, T60), 100%; in the series on M. Luteus (ATCC 499732) (0.2 mM Diazoxide + 50 uM antidote, T20), 100%; with M. Luteus (ATCC 499732) (0.2 mM Diazoxide + 100 uM antidote, T20), 100%; with M. Luteus (ATCC 499732) (0.2 mM Diazoxide + 100 uM antidote, T60), 100%; in the series with M. Luteus (ATCC 499732) (substance alone 100 uM, T20 (20 minutes)), 100%. In addition, the “Mean % Survival” value is on record as 100% in the series with M. Luteus (ATCC 499732) (substance alone 100 uM, T60 (60 minutes)); 93% in [10] (100 uM Streptozotocin + 1 uM antidote); 100% in [10] (setting [16]); 100% in series [10] (100 uM Streptozotocin + 12.5 uM antidote); 100% in series [10] (substance alone 12.5 uM).

With “1,4,8,11-tetraaza-1,4,8,11-tetra(2-piperidylethyl)cyclotetradecane [cyclam-piperidine]”, in [1] (setting [11]), the “Log Partition Coefficient Octanol:Water” value came to 0.7.

On to `C[n+]1ccc(-c2cc[n+](C)cc2)cc1` [Paraquat], for which the “Mean % Survival” value in the series on E. coli (ATCC 35150) (substance alone 0.5 mM) worked out at 16%; in the series with E. coli (ATCC 35150) (substance alone 1 mM) it was 10%; in the series on S. aureus (ATCC 29213) [3] (substance alone 0.5 mM, 60 minutes), 39%.

For `c1ccc(CNCCCNCc2ccccn2)nc1` [2,3,2-pyridine, (2-pyridylmethyl){3-[(2-pyridylmethyl)amino]propyl}amine], the logP at 12 h in series [1] (octanol/water (1:1), 1:1 octanol/water, shaken 12 hours, HPLC, read-out: Log Partition Coefficient Octanol:Water) is 2.7. Also, the “lipid water partitioning, in words” value in [1] is recorded as “optimal lipid water partitioning”. Also, the pKa in series [2] (read-out: pKa(1)) worked out at 8.3; in series [2] (read-out: pKa(2)), 7.4. In addition, the “Mean % Survival” value was 61% in the series on S. aureus (ATCC 29213) [4] (setting [12]); 84% in the series on S. aureus (ATCC 29213) [4] (setting [13]); 99% in the series with S. aureus (ATCC 29213) [4] (substance alone 5 uM); 100% in series [6] (setting [14]); 100% in series [6] (setting [15]); 100% in series [6] (100 uM Rotenone + 20 uM antidote). Moreover, the “Mean % Survival” value in series [6] (100 uM Rotenone + 50 uM antidote) came to 100%; in [6] (substance alone 50 uM), 100%; in series [8] (2 mM Alloxan + 10 uM antidote), 100%; in series [8] (substance alone 10 uM), 100%; in the series with M. Luteus (ATCC 499732) (0.2 mM Diazoxide + 2.5 uM antidote, T20), 96%; with M. Luteus (ATCC 499732) (0.2 mM Diazoxide + 2.5 uM antidote, T60), 99%. Besides, the “Mean % Survival” value in the series with M. Luteus (ATCC 499732) (0.2 mM Diazoxide + 5 uM antidote, T20) stood at 93%; in the series on M. Luteus (ATCC 499732) (0.2 mM Diazoxide + 5 uM antidote, T60), 100%; in the series with M. Luteus (ATCC 499732) (0.2 mM Diazoxide + 10 uM antidote, T20) it was 100%; in the series on M. Luteus (ATCC 499732) (0.2 mM Diazoxide + 10 uM antidote, T60), 100%; with M. Luteus (ATCC 499732) (0.2 mM Diazoxide + 20 uM antidote, T20) it was 100%; in the series on M. Luteus (ATCC 499732) (0.2 mM Diazoxide + 20 uM antidote, T60) it was 100%. For the same molecule, the “Mean % Survival” value in the series on M. Luteus (ATCC 499732) (0.2 mM Diazoxide + 40 uM antidote, T20) is on record as 100%; in the series on M. Luteus (ATCC 499732) (0.2 mM Diazoxide + 40 uM antidote, T60), 70%; in the series with M. Luteus (ATCC 499732) (substance alone 40 uM, T20 (20 minutes)), 100%; in the series on M. Luteus (ATCC 499732) (substance alone 40 uM, T60 (60 minutes)), 100%; in series [10] (100 uM Streptozotocin + 2.5 uM antidote), 100%; in series [10] (setting [16]), 100%. Moreover, the “Mean % Survival” value in [10] (100 uM Streptozotocin + 20 uM antidote) and in series [10] (substance alone 20 uM) was 100% in each case.

Values taken from patent publication US20140057877A1, “Therapeutic polyamine compositions and their synthesis” (priority 2002, published 2014).
